Calls of active or inactive are those of the source. The calls are words filed in the database; no cut-off is given here.
Tests used:
Homo sapiens [1] = species on record: Homo sapiens; assay: Inhibition of casein kinase-2 in human pulmonary smooth muscle cells assessed as reduction in Nkx2-5 nuclear translocation
[2] = Effect on Nkx2-5 cytosolic expression in human pulmonary smooth muscle cells; format: ADME; conditions: cytosol
Homo sapiens [3] = species on record: Homo sapiens; assay: Inhibition of casein kinase-2/Nkx2-5 in human pulmonary smooth muscle cells assessed as down-regulation of CCN2 protein expression at 1 nM by Western blot analysis
Homo sapiens [4] = species on record: Homo sapiens; assay: Inhibition of cell proliferation of human pulmonary smooth muscle cells incubated up to 120 hrs; format: functional
Mus musculus [5] = assay: Inhibition of right ventricular systolic pressure increase in […] mouse hypoxia/Sugen pre-clinical model of pulmonary hypertension at 80 mg/kg dosed daily for 20 days starting 8 days post experimental initiation; format: functional, organism-based
Homo sapiens [6] = species on record: Homo sapiens; assay: Inhibition of casein kinase-2/Nkx2-5 in human pulmonary smooth muscle cells assessed as down-regulation of COL1 protein expression at 1 nM by Western blot analysis
Homo sapiens [7] = species on record: Homo sapiens; assay: Inhibition of casein kinase-2/Nkx2-5 in human pulmonary smooth muscle cells assessed as up-regulation of ACTA2 protein expression at 1 nM by Western blot analysis
Homo sapiens [8] = species on record: Homo sapiens; assay: Inhibition of casein kinase-2/Nkx2-5 in human pulmonary smooth muscle cells assessed as up-regulation of MYH11 protein expression at 1 nM by Western blot analysis
Mus musculus [9] = assay: Effect on systemic pressure in […] mouse hypoxia/Sugen pre-clinical model of pulmonary hypertension at 80 mg/kg dosed daily for 20 days starting immediately post experimental initiation; format: ADME, organism-based; conditions: in vivo, 480 h
Homo sapiens [10] = species on record: Homo sapiens; assay: Inhibition of casein kinase-2/Nkx2-5 in human pulmonary smooth muscle cells assessed as up-regulation of MYH11 protein expression at 10 nM by Western blot analysis
Homo sapiens [11] = species on record: Homo sapiens; assay: Inhibition of cell migration of human pulmonary smooth muscle cells by standard scratch assay; format: functional
Homo sapiens [12] = species on record: Homo sapiens; assay: Inhibition of de-differentiation of human pulmonary smooth muscle cells assessed as reduction in contractile to synthetic forms change; format: functional
Homo sapiens [13] = species on record: Homo sapiens; assay: Inhibition of casein kinase-2/Nkx2-5 in human pulmonary smooth muscle cells assessed as down-regulation of COL1 protein expression at 10 nM by Western blot analysis
Homo sapiens [14] = species on record: Homo sapiens; assay: Inhibition of casein kinase-2/Nkx2-5 in human pulmonary smooth muscle cells assessed as down-regulation of CCN2 protein expression at 10 nM by Western blot analysis
Mus musculus [15] = assay: Inhibition of right ventricular systolic pressure increase in […] mouse hypoxia/Sugen pre-clinical model of pulmonary hypertension at 80 mg/kg dosed daily for 20 days starting immediately post experimental initiation; format: functional, organism-based
Homo sapiens [16] = species on record: Homo sapiens; assay: Inhibition of casein kinase-2/Nkx2-5 in human pulmonary smooth muscle cells assessed as up-regulation of ACTA2 protein expression at 10 nM by Western blot analysis
Mus musculus [17] = assay: Effect on systemic pressure in […] mouse hypoxia/Sugen pre-clinical model of pulmonary hypertension at 80 mg/kg dosed daily for 20 days starting 8 days post experimental initiation; format: functional, organism-based

inhibition (Homo sapiens [1])	inhibition (Homo sapiens [3])	inhibition (Homo sapiens [6])	inhibition (Homo sapiens [7])	inhibition (Homo sapiens [8])	inhibition (Homo sapiens [10])	inhibition (Homo sapiens [13])	inhibition (Homo sapiens [14])	inhibition (Homo sapiens [16])	Compound	Activity [2]	inhibition (Homo sapiens [4])	inhibition (Mus musculus [5])	Activity (Mus musculus [9])	inhibition (Homo sapiens [11])	inhibition (Homo sapiens [12])	inhibition (Mus musculus [15])	Activity (Mus musculus [17])
Active	–	–	–	–	–	–	–	–	COc1cc(Nc2ncc3ccn(-c4cccc(CCC#N)c4)c3n2)cc(OC)c1OC	Non-Toxic	–	–	–	–	–	–	–
–	Active	Active	Active	Active	Active	Active	Active	Active	O=C(O)c1ccc2c(c1)nc(Nc1cccc(Cl)c1)c1ccncc12 [SILMITASERTIB]	–	Dose-dependent effect	Active	Non-Toxic	Dose-dependent effect	Dose-dependent effect	Active	inactive
